Experiment: xn = mol fraction of the nth substance listed
Settings: Fluid (supercritical or subcritical phases), Vibrating tube method

c1ccc2ccccc2c1 [naphthalene] + O=C=O
Settings	mass density [kg/m3]
328.08 K, 11734 kPa, x1 = 0.0065	526.75
328.08 K, 11815 kPa, x1 = 0.0065	533.03
328.08 K, 11937 kPa, x1 = 0.0065	541.87
328.08 K, 12028 kPa, x1 = 0.0065	548.44
328.08 K, 12127 kPa, x1 = 0.0065	555.07
328.08 K, 12334 kPa, x1 = 0.0065	568.49
328.08 K, 12646 kPa, x1 = 0.0065	586.46
328.08 K, 13208 kPa, x1 = 0.0065	613.74
328.08 K, 13824 kPa, x1 = 0.0065	638.32
328.08 K, 14520 kPa, x1 = 0.0065	661.29
328.08 K, 15410 kPa, x1 = 0.0065	685.64
328.08 K, 16319 kPa, x1 = 0.0065	706.24
328.08 K, 17226 kPa, x1 = 0.0065	723.77
328.08 K, 18128 kPa, x1 = 0.0065	739.05
328.08 K, 19046 kPa, x1 = 0.0065	752.91
328.08 K, 20020 kPa, x1 = 0.0065	766.16
328.08 K, 21002 kPa, x1 = 0.0065	778.22
328.08 K, 21995 kPa, x1 = 0.0065	789.31
328.08 K, 22871 kPa, x1 = 0.0065	798.48
328.08 K, 23424 kPa, x1 = 0.0065	803.93
328.1 K, 10952 kPa, x1 = 0.0038	442.37
328.1 K, 11010 kPa, x1 = 0.0038	448.13
328.1 K, 11054 kPa, x1 = 0.0038	452.8
328.1 K, 11219 kPa, x1 = 0.0038	468.8
328.1 K, 11363 kPa, x1 = 0.0038	482.43
328.1 K, 11517 kPa, x1 = 0.0038	495.77
328.1 K, 11649 kPa, x1 = 0.0038	507.25
328.1 K, 11832 kPa, x1 = 0.0038	521.74
328.1 K, 11972 kPa, x1 = 0.0038	532.31
328.1 K, 12088 kPa, x1 = 0.0038	540.71
328.1 K, 12322 kPa, x1 = 0.0038	556.51
328.1 K, 12538 kPa, x1 = 0.0038	569.79
328.1 K, 12706 kPa, x1 = 0.0038	579.47
328.1 K, 12941 kPa, x1 = 0.0038	591.84
328.1 K, 13117 kPa, x1 = 0.0038	600.49
328.1 K, 13376 kPa, x1 = 0.0038	612.23
328.1 K, 13618 kPa, x1 = 0.0038	622.37
328.1 K, 13925 kPa, x1 = 0.0038	634.21
328.1 K, 14240 kPa, x1 = 0.0038	645.33
328.1 K, 14511 kPa, x1 = 0.0038	654.12
328.1 K, 14850 kPa, x1 = 0.0038	664.35
328.1 K, 15299 kPa, x1 = 0.0038	676.78
328.1 K, 15816 kPa, x1 = 0.0038	689.62
328.1 K, 16314 kPa, x1 = 0.0038	700.83
328.1 K, 16845 kPa, x1 = 0.0038	711.78
328.1 K, 17403 kPa, x1 = 0.0038	722.35
328.1 K, 18014 kPa, x1 = 0.0038	732.96
328.1 K, 18738 kPa, x1 = 0.0038	744.46
328.1 K, 19499 kPa, x1 = 0.0038	755.49
328.1 K, 20377 kPa, x1 = 0.0038	767.2
328.1 K, 21134 kPa, x1 = 0.0038	776.5
328.1 K, 22132 kPa, x1 = 0.0038	787.85
328.1 K, 23017 kPa, x1 = 0.0038	797.14
328.1 K, 24029 kPa, x1 = 0.0038	806.95
328.1 K, 25024 kPa, x1 = 0.0038	815.98
328.11 K, 15028 kPa, x1 = 0.0214	725.95
328.11 K, 15923 kPa, x1 = 0.0214	742.34
328.11 K, 17035 kPa, x1 = 0.0214	759.59
328.11 K, 18008 kPa, x1 = 0.0214	773.1
328.11 K, 19015 kPa, x1 = 0.0214	785.68
328.11 K, 20044 kPa, x1 = 0.0214	797.24
328.11 K, 21022 kPa, x1 = 0.0214	807.22
328.11 K, 22000 kPa, x1 = 0.0214	816.43
328.11 K, 23011 kPa, x1 = 0.0214	825.23
328.11 K, 24023 kPa, x1 = 0.0214	833.49
332.93 K, 18103 kPa, x1 = 0.0198	740.17
332.93 K, 19004 kPa, x1 = 0.0198	753.43
332.93 K, 20061 kPa, x1 = 0.0198	767.37
332.93 K, 21067 kPa, x1 = 0.0198	779.34
332.93 K, 22050 kPa, x1 = 0.0198	789.99
332.93 K, 23026 kPa, x1 = 0.0198	799.71
332.93 K, 23949 kPa, x1 = 0.0198	808.29
332.93 K, 24971 kPa, x1 = 0.0198	817.26
332.95 K, 12055 kPa, x1 = 0.0049	468.83
332.95 K, 13050 kPa, x1 = 0.0049	535.86
332.95 K, 14011 kPa, x1 = 0.0049	584.76
332.95 K, 14979 kPa, x1 = 0.0049	622.27
332.95 K, 16026 kPa, x1 = 0.0049	654.27
332.95 K, 17024 kPa, x1 = 0.0049	679.08
332.95 K, 18017 kPa, x1 = 0.0049	699.78
332.95 K, 18994 kPa, x1 = 0.0049	717.43
332.95 K, 20008 kPa, x1 = 0.0049	733.55
332.95 K, 21018 kPa, x1 = 0.0049	747.87
332.95 K, 22004 kPa, x1 = 0.0049	760.51
332.95 K, 23003 kPa, x1 = 0.0049	772.24
332.95 K, 24035 kPa, x1 = 0.0049	783.38
332.96 K, 13066 kPa, x1 = 0.0093	562.4
332.96 K, 14010 kPa, x1 = 0.0093	607.19
332.96 K, 14033 kPa, x1 = 0.0144	623.67
332.96 K, 15035 kPa, x1 = 0.0144	657.01
332.96 K, 15044 kPa, x1 = 0.0093	643.85
332.96 K, 15076 kPa, x1 = 0.0173	670.77
332.96 K, 16046 kPa, x1 = 0.0093	671.79
332.96 K, 16056 kPa, x1 = 0.0144	683.98
332.96 K, 16081 kPa, x1 = 0.0173	695.5
332.96 K, 17019 kPa, x1 = 0.0144	704.86
332.96 K, 17024 kPa, x1 = 0.0173	714.84
332.96 K, 17026 kPa, x1 = 0.0093	694.34
332.96 K, 17996 kPa, x1 = 0.0173	731.97
332.96 K, 18009 kPa, x1 = 0.0093	713.47
332.96 K, 18013 kPa, x1 = 0.0144	723.3
332.96 K, 18019 kPa, x1 = 0.0235	741.5
332.96 K, 19018 kPa, x1 = 0.0235	756.06
332.96 K, 19028 kPa, x1 = 0.0144	739.71
332.96 K, 19030 kPa, x1 = 0.0093	730.7
332.96 K, 19068 kPa, x1 = 0.0173	748.38
332.96 K, 19996 kPa, x1 = 0.0173	761.05
332.96 K, 20018 kPa, x1 = 0.0144	753.83
332.96 K, 20030 kPa, x1 = 0.0093	745.57
332.96 K, 20031 kPa, x1 = 0.0235	769.21
332.96 K, 20990 kPa, x1 = 0.0144	766.28
332.96 K, 21000 kPa, x1 = 0.0235	780.59
332.96 K, 21004 kPa, x1 = 0.0093	758.59
332.96 K, 21018 kPa, x1 = 0.0173	773.69
332.96 K, 21972 kPa, x1 = 0.0235	791.04
332.96 K, 21996 kPa, x1 = 0.0173	784.65
332.96 K, 22030 kPa, x1 = 0.0144	778.43
332.96 K, 22033 kPa, x1 = 0.0093	771.07
332.96 K, 22991 kPa, x1 = 0.0173	794.89
332.96 K, 22996 kPa, x1 = 0.0235	801.19
332.96 K, 23002 kPa, x1 = 0.0093	781.81
332.96 K, 23017 kPa, x1 = 0.0144	789
332.96 K, 23986 kPa, x1 = 0.0235	810.27
332.96 K, 23990 kPa, x1 = 0.0093	791.9
332.96 K, 23999 kPa, x1 = 0.0144	798.72
332.96 K, 24019 kPa, x1 = 0.0173	804.7
332.96 K, 24677 kPa, x1 = 0.0173	810.61
332.96 K, 24809 kPa, x1 = 0.0235	817.39
332.96 K, 24940 kPa, x1 = 0.0144	807.41
333 K, 12451 kPa, x1 = 0.0065	503.55
333 K, 13033 kPa, x1 = 0.0065	540.53
333 K, 13760 kPa, x1 = 0.0065	578.33
333 K, 14541 kPa, x1 = 0.0065	610.99
333 K, 15426 kPa, x1 = 0.0065	640.78
333 K, 16333 kPa, x1 = 0.0065	665.58
333 K, 17231 kPa, x1 = 0.0065	686.41
333 K, 18146 kPa, x1 = 0.0065	704.71
333 K, 19018 kPa, x1 = 0.0065	720.04
333 K, 20017 kPa, x1 = 0.0065	735.62
333 K, 21002 kPa, x1 = 0.0065	749.43
333 K, 22012 kPa, x1 = 0.0065	762.16
333 K, 23025 kPa, x1 = 0.0065	773.85
333 K, 24004 kPa, x1 = 0.0065	784.3
333 K, 25022 kPa, x1 = 0.0065	794.34
333.02 K, 12620 kPa, x1 = 0.0038	505.57
333.02 K, 12810 kPa, x1 = 0.0038	517.8
333.02 K, 12997 kPa, x1 = 0.0038	529.34
333.02 K, 13183 kPa, x1 = 0.0038	540.11
333.02 K, 13406 kPa, x1 = 0.0038	552.35
333.02 K, 13640 kPa, x1 = 0.0038	564.51
333.02 K, 13893 kPa, x1 = 0.0038	576.62
333.02 K, 14134 kPa, x1 = 0.0038	587.16
333.02 K, 14390 kPa, x1 = 0.0038	597.75
333.02 K, 14768 kPa, x1 = 0.0038	612.29
333.02 K, 15159 kPa, x1 = 0.0038	625.81
333.02 K, 15535 kPa, x1 = 0.0038	637.78
333.02 K, 16027 kPa, x1 = 0.0038	652.03
333.02 K, 16469 kPa, x1 = 0.0038	663.57
333.02 K, 17018 kPa, x1 = 0.0038	676.71
333.02 K, 17622 kPa, x1 = 0.0038	689.78
333.02 K, 18197 kPa, x1 = 0.0038	701.13
333.02 K, 18835 kPa, x1 = 0.0038	712.75
333.02 K, 19606 kPa, x1 = 0.0038	725.55
333.02 K, 20350 kPa, x1 = 0.0038	736.76
333.02 K, 21107 kPa, x1 = 0.0038	747.32
333.02 K, 22018 kPa, x1 = 0.0038	758.99
333.02 K, 22977 kPa, x1 = 0.0038	770.32
333.02 K, 23992 kPa, x1 = 0.0038	781.31
333.02 K, 25039 kPa, x1 = 0.0038	791.79

— the NIST ThermoML archive (doi:10.1016/j.fluid.2005.06.010)
